Data as given in patent US12624044B2, “SMARCA degraders and uses thereof” (Kymera Therapeutics, Inc., priority 2019, dated 2026).

Molecular target: SMARCA2 (Homo sapiens, UniProt P51531)
Assay: MSD SMARCA2 degradation in A549 cell line
Assay type: cell-based
Conditions: 24 h; for Dmax: A549, A549 cells; for DC50: A549 cells, read-out: SMARCA2 MSD A549 degradation 24 h: Average external-Abs DC50
Protocol: Cells were seeded into 96-well plates (A549 cells: 2×10^4 cells/well/100 ul media) abd incubated overnight. The next day, 200 nl compound were added into the intermediate plate with Echo (Labcyte 550) from source plate containing a 3-fold serial dilution from top concentration of 1 mM. The culture medium was changed with 80 ul of fresh medium and 80 ul of 2× compound solution was added into the well to make a final concentration of 1000 nM, 333.3 nM, 111.1 nM, 37.04 nM, 12.35 nM, 4.115 nM, 1.372 nM, 0.457 nM, 0.152 nM and 0 nM (DMSO). The wells were mixed and then incubated for 24 hours. The media was aspirated from the cultures and 60 ul pre-chilled PIPA lysis buffer (Boston BioProducts BP-115D) with protease/phosphatase inhibitor (Roche 05892791001/Roche 04906837001) was added into the well to lyze the cells for 20 minutes at 4° C. The MSD plate (L15XA) was coated with 40 ul cell lysate and incubated at 4° C. overnight. The next day, the plate was washed three times with TBST (CST #9997S), 150 ul/well. The MSD plates was blocked with 150 ul blocking buffer per well and shaked for 1 hr at RT, 600 rpm. The blocking buffer was 3% Blocker A (MSD, R93BA-4) in TBST. The MSD plate was washed three times with 150 ul/well of TBST and 25 ul/well of detection antibody (Rabbit anti-SMARCA2/BRM antibody, 100 μg/ml, ab223735) was added at final concentration of 1 ug/ml diluted in 1% Blocking buffer and shaken for 1 hour at RT, 600 rpm. The MSD plate was washed three times with 150 ul/well of TBST and 25 ul/well of SULFO-TAG anti-rabbit antibody (MSD, R32AB-1) was added at final concentration of 1 ug/ml diluted in 1% Blocking buffer and shaken for 1 hour at RT, 600 rpm. The MSD plate was washed three times with 150 ul/well of TBST and 150 ul/well of 2×MSD reading buffer diluted from 4× (MSD, R92TC-2) with water was added. Lastly, the MSD instrument was read.
The letter codes for the percentage of SMARCA2 degradation after 24 hours (Dmax %) include: A (>90% degradation), B (>70-90% degradation), C (50-70% degradation), and D (<50% degradation).

Chain of SMARCA2 (P51531 whole entry): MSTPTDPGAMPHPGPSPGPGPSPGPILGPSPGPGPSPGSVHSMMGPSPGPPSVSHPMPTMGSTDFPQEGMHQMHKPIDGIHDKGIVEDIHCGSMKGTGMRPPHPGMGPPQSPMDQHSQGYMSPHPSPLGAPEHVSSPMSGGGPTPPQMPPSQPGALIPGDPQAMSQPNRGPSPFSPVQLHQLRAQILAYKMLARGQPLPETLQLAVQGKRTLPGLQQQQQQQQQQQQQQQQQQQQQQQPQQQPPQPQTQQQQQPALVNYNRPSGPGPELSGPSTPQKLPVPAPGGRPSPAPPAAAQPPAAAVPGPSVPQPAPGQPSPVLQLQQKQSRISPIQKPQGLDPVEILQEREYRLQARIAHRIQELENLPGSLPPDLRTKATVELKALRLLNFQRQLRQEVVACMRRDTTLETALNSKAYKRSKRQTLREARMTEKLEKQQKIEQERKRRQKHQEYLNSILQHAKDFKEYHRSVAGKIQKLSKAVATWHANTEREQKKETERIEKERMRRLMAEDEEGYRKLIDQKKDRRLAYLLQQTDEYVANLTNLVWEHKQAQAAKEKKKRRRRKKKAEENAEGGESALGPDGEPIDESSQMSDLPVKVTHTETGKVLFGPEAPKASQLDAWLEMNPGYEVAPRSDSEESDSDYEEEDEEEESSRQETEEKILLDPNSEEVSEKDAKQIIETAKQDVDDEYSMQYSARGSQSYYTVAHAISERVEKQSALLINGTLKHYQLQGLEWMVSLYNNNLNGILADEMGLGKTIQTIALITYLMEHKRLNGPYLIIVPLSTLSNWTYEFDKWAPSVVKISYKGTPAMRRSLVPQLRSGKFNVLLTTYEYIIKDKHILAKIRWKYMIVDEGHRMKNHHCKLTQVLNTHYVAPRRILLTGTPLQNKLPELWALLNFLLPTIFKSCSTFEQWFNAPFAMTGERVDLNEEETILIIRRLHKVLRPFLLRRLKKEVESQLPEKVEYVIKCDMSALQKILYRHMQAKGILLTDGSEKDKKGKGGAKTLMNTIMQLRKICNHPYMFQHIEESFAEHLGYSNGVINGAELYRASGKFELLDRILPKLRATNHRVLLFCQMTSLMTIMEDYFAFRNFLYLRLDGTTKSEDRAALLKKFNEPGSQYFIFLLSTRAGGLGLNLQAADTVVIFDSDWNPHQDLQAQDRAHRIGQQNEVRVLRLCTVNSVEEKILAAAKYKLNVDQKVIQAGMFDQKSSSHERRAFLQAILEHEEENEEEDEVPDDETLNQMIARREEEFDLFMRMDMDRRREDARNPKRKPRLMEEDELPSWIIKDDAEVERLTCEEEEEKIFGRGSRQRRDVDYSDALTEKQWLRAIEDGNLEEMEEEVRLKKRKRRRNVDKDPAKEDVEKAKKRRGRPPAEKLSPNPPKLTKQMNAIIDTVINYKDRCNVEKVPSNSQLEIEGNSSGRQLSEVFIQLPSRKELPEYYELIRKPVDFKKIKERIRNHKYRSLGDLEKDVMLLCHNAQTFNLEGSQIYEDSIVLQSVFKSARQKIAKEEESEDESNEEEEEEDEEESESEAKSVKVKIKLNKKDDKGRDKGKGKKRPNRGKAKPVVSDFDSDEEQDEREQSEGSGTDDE

Row | SMILES | Dmax | DC50
1 | O=C1CCC(n2c(=O)oc3c(CCCOC4CCN(Cc5cccc(C#Cc6cc(NC(=O)Nc7cc(F)ncc7CO)ccn6)c5)CC4)cccc32)C(=O)N1 (stereo not drawn) [I-317] | < 50% | > 1000 nM
2 | CN(Cc1cccc(C#Cc2cc(NC(=O)Nc3cc(F)ncc3CO)ccn2)c1)C1CCN(Cc2cccc3c2n(C)c(=O)n3C2CCC(=O)NC2=O)CC1 (stereo not drawn) [I-318] | < 50% | > 1000 nM
3 | Cn1c(=O)n(C2CCC(=O)NC2=O)c2cccc(CN3CCC4(CCN(Cc5cccc(C#Cc6cc(NC(=O)Nc7cc(F)ncc7CO)ccn6)c5)CC4)CC3)c21 (stereo not drawn) [I-319] | < 50% | > 1000 nM
4 | CN(Cc1cccc(C#Cc2cc(NC(=O)Nc3cc(F)ncc3CO)ccn2)c1)C1CCN(C(=O)c2cccc3c2n(C)c(=O)n3C2CCC(=O)NC2=O)CC1 (stereo not drawn) [I-320] | < 50% | > 1000 nM
5 | Cc1ncsc1-c1ccc(CNC(=O)[C@@H]2C[C@@H](O)CN2C(=O)[C@@H](NC(=O)[C@H]2CC[C@@H](Cc3cnc(N4C5CCC4CN(c4cc(-c6ccccc6O)nnc4N)C5)nc3)CC2)C(C)(C)C)cc1 [I-367] | > 90% | < 100 nM
6 | Cc1ncsc1-c1ccc(CNC(=O)[C@@H]2C[C@@H](O)CN2C(=O)[C@@H](NC(=O)[C@H]2C[C@@H](N(C)Cc3cnc(N4C5CCC4CN(c4cc(-c6ccccc6O)nnc4N)C5)nc3)C2)C(C)(C)C)cc1 [I-370] | 70 to 90% | 100 to 500 nM
7 | Cc1ncsc1-c1ccc(CNC(=O)[C@@H]2C[C@@H](O)CN2C(=O)[C@@H](NC(=O)[C@H]2CC[C@@H](N(C)Cc3cnc(N4C5CCC4CN(c4cc(-c6ccccc6O)nnc4N)C5)nc3)CC2)C(C)(C)C)cc1 [I-371] | > 90% | 100 to 500 nM
8 | Cc1ncsc1-c1ccc(CNC(=O)[C@@H]2C[C@@H](O)CN2C(=O)[C@@H](NC(=O)[C@H]2CC[C@H](N(C)Cc3cnc(N4C5CCC4CN(c4cc(-c6ccccc6O)nnc4N)C5)nc3)CC2)C(C)(C)C)cc1 [I-372] | 50 to 70% | 501 to 1000 nM
9 | Cc1ncsc1-c1ccc(CNC(=O)[C@@H]2C[C@@H](O)CN2C(=O)[C@@H](NC(=O)[C@H]2CC[C@@H](CN3CCC(c4cnc(N5C6CCC5CN(c5cc(-c7ccccc7O)nnc5N)C6)nc4)CC3)CC2)C(C)(C)C)cc1 [I-373] | > 90% | 100 to 500 nM
10 | Cc1ncsc1-c1ccc(CNC(=O)[C@@H]2C[C@@H](O)CN2C(=O)[C@@H](NC(=O)[C@H]2C[C@@H](CN3CCC(c4cnc(N5C6CCC5CN(c5cc(-c7ccccc7O)nnc5N)C6)nc4)CC3)C2)C(C)(C)C)cc1 [I-374] | 70 to 90% | 100 to 500 nM
11 | Cc1ncsc1-c1ccc(CNC(=O)[C@@H]2C[C@@H](O)CN2C(=O)[C@@H](NC(=O)[C@H]2C[C@H](CN3CCC(c4cnc(N5C6CCC5CN(c5cc(-c7ccccc7O)nnc5N)C6)nc4)CC3)C2)C(C)(C)C)cc1 [I-376] | 50 to 70% | 501 to 1000 nM
12 | Cc1ncsc1-c1ccc(CNC(=O)[C@@H]2C[C@@H](O)CN2C(=O)[C@@H](NC(=O)[C@H]2CC[C@@H](CCCCCN3CCC(Cn4cc(-c5cc(-c6ccccc6O)nnc5N)cn4)CC3)CC2)C(C)(C)C)cc1 [I-377] | 70 to 90% | 100 to 500 nM
13 | Cc1ncsc1-c1ccc(CNC(=O)[C@@H]2C[C@@H](O)CN2C(=O)[C@@H](NC(=O)[C@H]2CC[C@@H](c3ccc(CN4CCC(Cn5cc(-c6cc(-c7ccccc7O)nnc6N)cn5)CC4)cc3)CC2)C(C)(C)C)cc1 [I-379] | > 90% | 100 to 500 nM
14 | Cc1ncsc1-c1ccc(CNC(=O)[C@@H]2C[C@@H](O)CN2C(=O)[C@@H](NC(=O)[C@H]2CC[C@H](c3ccc(CN4CCC(Cn5cc(-c6cc(-c7ccccc7O)nnc6N)cn5)CC4)cc3)CC2)C(C)(C)C)cc1 [I-380] | > 90% | 100 to 500 nM
15 | Cc1ncsc1-c1ccc(CNC(=O)[C@@H]2C[C@@H](O)CN2C(=O)[C@@H](NC(=O)C2CC3(CCN(CCN4CCC(Cn5cc(-c6cc(-c7ccccc7O)nnc6N)cn5)CC4)CC3)C2)C(C)(C)C)cc1 [I-381] | 50 to 70% | 501 to 1000 nM
16 | Cc1ncsc1-c1ccc(CNC(=O)[C@@H]2C[C@@H](O)CN2C(=O)[C@@H](NC(=O)C[C@H]2C[C@H](N3CCC(c4cnc(N5C6CCC5CN(c5cc(-c7ccccc7O)nnc5N)C6)nc4)CC3)C2)C(C)(C)C)cc1 [I-391] | > 90% | 100 to 500 nM
17 | Cc1ncsc1-c1ccc(CNC(=O)[C@@H]2C[C@@H](O)CN2C(=O)[C@@H](NC(=O)C[C@H]2C[C@@H](N3CCC(c4cnc(N5C6CCC5CN(c5cc(-c7ccccc7O)nnc5N)C6)nc4)CC3)C2)C(C)(C)C)cc1 [I-392] | 70 to 90% | 100 to 500 nM
18 | Cc1ncsc1-c1ccc(CNC(=O)[C@@H]2C[C@@H](O)CN2C(=O)[C@@H](NC(=O)[C@H]2CC[C@H](N3CC(c4cnc(N5C6CCC5CN(c5cc(-c7ccccc7O)nnc5N)C6)nc4)C3)CC2)C(C)(C)C)cc1 [I-393] | > 90% | 100 to 500 nM
19 | Cc1ncsc1-c1ccc(CNC(=O)[C@@H]2C[C@@H](O)CN2C(=O)[C@@H](NC(=O)C2CC3(CCN(Cc4cnc(N5C6CCC5CN(c5cc(-c7ccccc7O)nnc5N)C6)nc4)CC3)C2)C(C)(C)C)cc1 [I-394] | > 90% | 100 to 500 nM
20 | Cc1ncsc1-c1ccc(CNC(=O)[C@@H]2C[C@@H](O)CN2C(=O)[C@@H](NC(=O)[C@H]2CC[C@H](C(=O)N(C)Cc3cnc(N4C5CCC4CN(c4cc(-c6ccccc6O)nnc4N)C5)nc3)CC2)C(C)(C)C)cc1 [I-396] | 70 to 90% | 100 to 500 nM
21 | Cc1ncsc1-c1ccc(CNC(=O)[C@@H]2C[C@@H](O)CN2C(=O)[C@@H](NC(=O)[C@H]2CC[C@H](N3CCC(CN4CCC(Cn5cc(-c6cc(-c7ccccc7O)nnc6N)cn5)CC4)CC3)CC2)C(C)(C)C)cc1 [I-397] | < 50% | > 1000 nM
22 | Cc1ncsc1-c1ccc(CNC(=O)[C@@H]2C[C@@H](O)CN2C(=O)[C@@H](NC(=O)[C@H]2CC[C@H](CN3CCC(c4cnc(N5C6CCC5CN(c5cc(-c7ccccc7O)nnc5N)C6)nc4)CC3)CC2)C(C)(C)C)c(C(F)(F)F)c1 [I-398] | 50 to 70% | 501 to 1000 nM
23 | Cc1ncsc1-c1ccc(CNC(=O)[C@@H]2C[C@@H](O)CN2C(=O)[C@@H](NC(=O)[C@H]2CC[C@H](N3CCC(N4CCC(n5cc(-c6cc(-c7ccccc7O)nnc6N)cn5)CC4)CC3)CC2)C(C)(C)C)cc1 [I-400, (2S,4R)-1-((S)-2-((1r,4S)-4-(4-(4-(3-amino-6-(2-hydroxyphenyl)pyridazin-4-yl)-1H-pyrazol-1-yl)-[1,4′-bipiperidin]-1′-yl)cyclohexanecarboxamido)-3,3-dimethylbutanoyl)-4-hydroxy-N-(4-(4-methylthiazol-5-yl)benzyl)pyrrolidine-2-carboxamide] | 70 to 90% | 501 to 1000 nM
24 | Cc1ncsc1-c1ccc(CNC(=O)[C@@H]2C[C@@H](O)CN2C(=O)[C@@H](NC(=O)[C@@H]2CC3CCC2C[C@@H]3c2cnc(N3C4CCC3CN(c3cc(-c5ccccc5O)nnc3N)C4)nc2)C(C)(C)C)cc1 (stereo partly drawn) [I-410] | > 90% | 100 to 500 nM
25 | Cc1ncsc1-c1ccc(CNC(=O)[C@@H]2C[C@@H](O)CN2C(=O)[C@@H](NC(=O)[C@H]2CC[C@@H](Cc3ccc(-c4cnc(N5C6CCC5CN(c5cc(-c7ccccc7O)nnc5N)C6)nc4)cc3)CC2)C(C)(C)C)cc1 [I-413] | 70 to 90% | 100 to 500 nM
26 | Cc1ncsc1-c1ccc(CNC(=O)[C@@H]2C[C@@H](O)CN2C(=O)[C@@H](NC(=O)C2CC3(C2)CC(N2CCC(c4cnc(N5C6CCC5CN(c5cc(-c7ccccc7O)nnc5N)C6)nc4)CC2)C3)C(C)(C)C)cc1 (stereo partly drawn) [I-414] | > 90% | 100 to 500 nM
27 | Cc1ncsc1-c1ccc(CNC(=O)[C@@H]2C[C@@H](O)CN2C(=O)[C@@H](NC(=O)C2CC3(C2)CC(N(C)Cc2cnc(N4C5CCC4CN(c4cc(-c6ccccc6O)nnc4N)C5)nc2)C3)C(C)(C)C)cc1 (stereo partly drawn) [I-416] | > 90% | 100 to 500 nM
28 | Cc1ncsc1-c1ccc(CNC(=O)[C@@H]2C[C@@H](O)CN2C(=O)[C@@H](NC(=O)[C@H]2CC3(C[C@H](CN(C)Cc4cnc(N5C6CCC5CN(c5cc(-c7ccccc7O)nnc5N)C6)nc4)C3)C2)C(C)(C)C)cc1 (stereo partly drawn) [I-417] | > 90% | 100 to 500 nM
29 | Cc1ncsc1-c1ccc(CNC(=O)[C@@H]2C[C@@H](O)CN2C(=O)[C@@H](NC(=O)C2CC=C(c3nccc(N4C5CCC4CN(c4cc(-c6ccccc6O)nnc4N)C5)n3)CC2)C(C)(C)C)cc1 (stereo partly drawn) [I-418] | > 90% | 100 to 500 nM
30 | Cc1ncsc1-c1ccc(CNC(=O)[C@@H]2C[C@@H](O)CN2C(=O)[C@@H](NC(=O)[C@H]2CC[C@@H](Cc3cnc(N4C5CCC4CN(c4cc(-c6ccccc6O)nnc4N)C5)nc3)CC2)C(C)(C)C)c(C(F)(F)F)c1 [I-421] | 70 to 90% | 100 to 500 nM
